Laboratory results from ChEMBL document CHEMBL4028801, “A multifactorial approach to hepatobiliary transporter assessment enables improved therapeutic compound development” (Toxicol Sci, 2013).
Counter-ions that a name gives are not always drawn. Positions of bridges follow the written chain, without caps; N, C: chain ends. Residues, ends and D or L forms follow the SMILES beside them.

Assays:
[1] = biological target: T1, ATP-binding cassette sub-family C member 4 (Homo sapiens, UniProt O15439); assay: Inhibition of human MRP4 overexpressed in Sf9 cell membrane vesicles assessed as uptake of [3H]-estradiol-17beta-D-glucuronide in presence of ATP and GSH measured after 20 mins by membrane vesicle transport assay; format: ADME, cell-based
T1 sequence (O15439 whole entry): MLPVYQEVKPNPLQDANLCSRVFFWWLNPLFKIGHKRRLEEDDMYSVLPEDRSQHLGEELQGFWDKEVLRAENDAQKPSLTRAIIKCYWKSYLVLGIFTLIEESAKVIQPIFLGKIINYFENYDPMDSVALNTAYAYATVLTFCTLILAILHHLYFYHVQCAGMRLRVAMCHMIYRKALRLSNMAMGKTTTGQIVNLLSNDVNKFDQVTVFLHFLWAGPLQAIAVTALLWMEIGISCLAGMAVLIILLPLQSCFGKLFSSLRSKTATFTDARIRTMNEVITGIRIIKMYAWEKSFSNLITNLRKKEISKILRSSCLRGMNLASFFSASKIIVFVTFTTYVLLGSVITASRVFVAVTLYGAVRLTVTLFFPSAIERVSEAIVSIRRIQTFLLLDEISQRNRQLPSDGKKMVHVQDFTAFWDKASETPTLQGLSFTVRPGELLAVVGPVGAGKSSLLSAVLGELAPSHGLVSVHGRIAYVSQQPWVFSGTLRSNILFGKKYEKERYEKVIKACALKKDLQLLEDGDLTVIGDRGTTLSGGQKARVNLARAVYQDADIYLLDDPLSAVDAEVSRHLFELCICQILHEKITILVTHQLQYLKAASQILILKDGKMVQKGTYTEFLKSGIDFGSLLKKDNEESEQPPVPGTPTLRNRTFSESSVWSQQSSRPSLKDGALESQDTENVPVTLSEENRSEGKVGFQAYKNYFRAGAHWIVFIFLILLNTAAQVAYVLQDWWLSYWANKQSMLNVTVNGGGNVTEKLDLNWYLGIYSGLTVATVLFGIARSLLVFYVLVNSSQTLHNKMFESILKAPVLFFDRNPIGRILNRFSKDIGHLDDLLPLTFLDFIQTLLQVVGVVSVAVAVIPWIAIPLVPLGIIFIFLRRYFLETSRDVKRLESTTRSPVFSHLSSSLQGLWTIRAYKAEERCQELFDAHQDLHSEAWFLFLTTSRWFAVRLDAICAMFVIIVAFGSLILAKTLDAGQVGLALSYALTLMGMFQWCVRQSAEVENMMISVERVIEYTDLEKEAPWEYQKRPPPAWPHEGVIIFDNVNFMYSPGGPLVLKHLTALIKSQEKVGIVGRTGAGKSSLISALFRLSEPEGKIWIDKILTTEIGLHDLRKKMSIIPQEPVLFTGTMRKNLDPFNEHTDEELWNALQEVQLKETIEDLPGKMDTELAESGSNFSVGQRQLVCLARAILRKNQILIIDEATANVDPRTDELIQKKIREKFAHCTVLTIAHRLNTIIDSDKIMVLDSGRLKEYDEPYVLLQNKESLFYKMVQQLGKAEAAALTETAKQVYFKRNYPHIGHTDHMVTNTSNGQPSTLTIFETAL

[2] = AUC in human at 5 to 10 mg, po QD after 24 hrs; format: ADME, organism-based; settings: in vivo
[3] = Ratio of drug concentration at steady state in human at 5 to 10 mg, po QD after 24 hrs to IC50 for human BSEP overexpressed in Sf9 insect cells; format: ADME, organism-based; settings: in vivo
Bile salt export pump = Bile salt export pump (Homo sapiens, UniProt O95342); assay: Inhibition of human BSEP overexpressed in Sf9 cell membrane vesicles assessed as uptake of [3H]-taurocholate in presence of ATP measured after 15 to 20 mins by membrane vesicle transport assay; format: ADME, cell-based
Chain of Bile salt export pump (O95342 whole entry): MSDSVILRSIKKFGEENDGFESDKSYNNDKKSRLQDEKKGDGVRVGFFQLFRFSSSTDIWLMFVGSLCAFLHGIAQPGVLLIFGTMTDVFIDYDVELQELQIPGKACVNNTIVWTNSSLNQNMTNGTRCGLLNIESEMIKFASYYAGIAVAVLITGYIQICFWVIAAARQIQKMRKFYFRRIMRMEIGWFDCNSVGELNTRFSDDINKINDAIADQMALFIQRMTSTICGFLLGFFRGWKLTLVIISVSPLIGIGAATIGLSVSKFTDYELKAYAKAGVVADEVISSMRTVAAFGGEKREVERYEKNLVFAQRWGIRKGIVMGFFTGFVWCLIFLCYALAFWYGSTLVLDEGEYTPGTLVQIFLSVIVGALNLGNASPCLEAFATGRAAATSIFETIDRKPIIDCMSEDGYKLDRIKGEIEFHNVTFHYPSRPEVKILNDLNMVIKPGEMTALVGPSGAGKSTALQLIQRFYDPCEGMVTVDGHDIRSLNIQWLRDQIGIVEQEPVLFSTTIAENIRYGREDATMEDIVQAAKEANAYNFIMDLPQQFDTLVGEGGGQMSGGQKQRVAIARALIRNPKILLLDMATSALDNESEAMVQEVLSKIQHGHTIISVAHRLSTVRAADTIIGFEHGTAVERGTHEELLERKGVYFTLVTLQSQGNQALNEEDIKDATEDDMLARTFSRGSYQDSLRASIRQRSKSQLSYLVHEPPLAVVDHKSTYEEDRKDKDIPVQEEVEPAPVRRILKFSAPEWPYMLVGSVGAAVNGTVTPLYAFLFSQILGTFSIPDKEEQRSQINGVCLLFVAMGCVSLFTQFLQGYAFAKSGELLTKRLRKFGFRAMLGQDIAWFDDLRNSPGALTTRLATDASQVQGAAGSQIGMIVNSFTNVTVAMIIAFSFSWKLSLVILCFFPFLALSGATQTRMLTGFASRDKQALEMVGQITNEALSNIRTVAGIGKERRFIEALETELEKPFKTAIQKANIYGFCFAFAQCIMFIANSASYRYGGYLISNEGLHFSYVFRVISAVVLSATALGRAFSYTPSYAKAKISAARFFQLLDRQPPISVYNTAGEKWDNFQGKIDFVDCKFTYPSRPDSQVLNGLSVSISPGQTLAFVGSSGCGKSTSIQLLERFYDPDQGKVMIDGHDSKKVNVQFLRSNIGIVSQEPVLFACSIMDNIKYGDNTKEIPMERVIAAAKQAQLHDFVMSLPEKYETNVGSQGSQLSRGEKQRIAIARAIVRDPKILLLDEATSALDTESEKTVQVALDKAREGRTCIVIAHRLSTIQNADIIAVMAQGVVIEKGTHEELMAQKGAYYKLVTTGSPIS

[4] = biological target: ATP-binding cassette sub-family C member 2 (Homo sapiens, UniProt Q92887); assay: Inhibition of human MRP2 overexpressed in Sf9 cell membrane vesicles assessed as uptake of [3H]-estradiol-17beta-D-glucuronide in presence of ATP and GSH measured after 20 mins by membrane vesicle transport assay
Chain of ATP-binding cassette sub-family C member 2 (Q92887 whole entry): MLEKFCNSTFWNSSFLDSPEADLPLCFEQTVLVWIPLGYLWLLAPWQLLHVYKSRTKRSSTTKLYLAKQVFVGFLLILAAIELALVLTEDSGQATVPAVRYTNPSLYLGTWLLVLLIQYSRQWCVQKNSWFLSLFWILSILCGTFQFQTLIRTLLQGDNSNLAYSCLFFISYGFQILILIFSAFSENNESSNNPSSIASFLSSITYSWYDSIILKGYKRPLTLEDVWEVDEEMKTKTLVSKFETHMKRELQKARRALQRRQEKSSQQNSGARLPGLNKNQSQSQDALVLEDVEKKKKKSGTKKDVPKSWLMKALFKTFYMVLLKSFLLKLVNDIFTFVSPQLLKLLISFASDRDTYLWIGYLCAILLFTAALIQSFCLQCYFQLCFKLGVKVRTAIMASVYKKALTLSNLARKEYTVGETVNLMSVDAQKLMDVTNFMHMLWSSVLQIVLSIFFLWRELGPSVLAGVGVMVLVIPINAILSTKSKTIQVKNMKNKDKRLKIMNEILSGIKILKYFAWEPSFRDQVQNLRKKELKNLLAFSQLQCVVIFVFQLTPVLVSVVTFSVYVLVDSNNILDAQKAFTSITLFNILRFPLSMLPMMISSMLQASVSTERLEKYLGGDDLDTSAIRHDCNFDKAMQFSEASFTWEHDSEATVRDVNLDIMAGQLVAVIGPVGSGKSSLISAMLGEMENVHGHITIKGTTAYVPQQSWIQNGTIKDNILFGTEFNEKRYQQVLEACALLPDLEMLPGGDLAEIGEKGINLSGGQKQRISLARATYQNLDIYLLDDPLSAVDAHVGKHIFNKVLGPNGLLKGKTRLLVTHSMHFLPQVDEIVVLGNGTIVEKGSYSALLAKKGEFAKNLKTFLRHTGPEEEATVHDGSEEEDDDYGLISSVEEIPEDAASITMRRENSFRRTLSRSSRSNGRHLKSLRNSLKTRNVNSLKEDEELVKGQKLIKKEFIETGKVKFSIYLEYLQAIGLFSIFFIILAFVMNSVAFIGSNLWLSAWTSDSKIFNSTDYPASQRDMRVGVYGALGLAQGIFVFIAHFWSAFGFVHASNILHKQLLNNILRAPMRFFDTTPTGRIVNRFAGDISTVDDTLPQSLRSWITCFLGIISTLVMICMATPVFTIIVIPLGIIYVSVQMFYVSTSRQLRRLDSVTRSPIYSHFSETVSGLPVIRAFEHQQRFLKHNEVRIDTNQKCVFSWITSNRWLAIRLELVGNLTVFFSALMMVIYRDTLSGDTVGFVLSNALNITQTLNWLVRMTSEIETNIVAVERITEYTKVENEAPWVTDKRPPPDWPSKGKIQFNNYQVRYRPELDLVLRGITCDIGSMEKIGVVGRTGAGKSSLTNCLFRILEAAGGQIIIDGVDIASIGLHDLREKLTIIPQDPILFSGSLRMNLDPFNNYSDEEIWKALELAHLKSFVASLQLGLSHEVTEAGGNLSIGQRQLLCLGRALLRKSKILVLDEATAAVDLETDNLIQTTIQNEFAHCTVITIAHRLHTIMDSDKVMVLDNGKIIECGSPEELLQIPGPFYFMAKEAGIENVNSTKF

[5] = biological target: ATP-binding cassette sub-family C member 3 (Homo sapiens, UniProt O15438); assay: Inhibition of human MRP3 overexpressed in Sf9 insect cell membrane vesicles assessed as uptake of [3H]-estradiol-17beta-D-glucuronide in presence of ATP and GSH measured after 10 mins by membrane vesicle transport assay; format: ADME, cell-based
Chain of ATP-binding cassette sub-family C member 3 (O15438 whole entry): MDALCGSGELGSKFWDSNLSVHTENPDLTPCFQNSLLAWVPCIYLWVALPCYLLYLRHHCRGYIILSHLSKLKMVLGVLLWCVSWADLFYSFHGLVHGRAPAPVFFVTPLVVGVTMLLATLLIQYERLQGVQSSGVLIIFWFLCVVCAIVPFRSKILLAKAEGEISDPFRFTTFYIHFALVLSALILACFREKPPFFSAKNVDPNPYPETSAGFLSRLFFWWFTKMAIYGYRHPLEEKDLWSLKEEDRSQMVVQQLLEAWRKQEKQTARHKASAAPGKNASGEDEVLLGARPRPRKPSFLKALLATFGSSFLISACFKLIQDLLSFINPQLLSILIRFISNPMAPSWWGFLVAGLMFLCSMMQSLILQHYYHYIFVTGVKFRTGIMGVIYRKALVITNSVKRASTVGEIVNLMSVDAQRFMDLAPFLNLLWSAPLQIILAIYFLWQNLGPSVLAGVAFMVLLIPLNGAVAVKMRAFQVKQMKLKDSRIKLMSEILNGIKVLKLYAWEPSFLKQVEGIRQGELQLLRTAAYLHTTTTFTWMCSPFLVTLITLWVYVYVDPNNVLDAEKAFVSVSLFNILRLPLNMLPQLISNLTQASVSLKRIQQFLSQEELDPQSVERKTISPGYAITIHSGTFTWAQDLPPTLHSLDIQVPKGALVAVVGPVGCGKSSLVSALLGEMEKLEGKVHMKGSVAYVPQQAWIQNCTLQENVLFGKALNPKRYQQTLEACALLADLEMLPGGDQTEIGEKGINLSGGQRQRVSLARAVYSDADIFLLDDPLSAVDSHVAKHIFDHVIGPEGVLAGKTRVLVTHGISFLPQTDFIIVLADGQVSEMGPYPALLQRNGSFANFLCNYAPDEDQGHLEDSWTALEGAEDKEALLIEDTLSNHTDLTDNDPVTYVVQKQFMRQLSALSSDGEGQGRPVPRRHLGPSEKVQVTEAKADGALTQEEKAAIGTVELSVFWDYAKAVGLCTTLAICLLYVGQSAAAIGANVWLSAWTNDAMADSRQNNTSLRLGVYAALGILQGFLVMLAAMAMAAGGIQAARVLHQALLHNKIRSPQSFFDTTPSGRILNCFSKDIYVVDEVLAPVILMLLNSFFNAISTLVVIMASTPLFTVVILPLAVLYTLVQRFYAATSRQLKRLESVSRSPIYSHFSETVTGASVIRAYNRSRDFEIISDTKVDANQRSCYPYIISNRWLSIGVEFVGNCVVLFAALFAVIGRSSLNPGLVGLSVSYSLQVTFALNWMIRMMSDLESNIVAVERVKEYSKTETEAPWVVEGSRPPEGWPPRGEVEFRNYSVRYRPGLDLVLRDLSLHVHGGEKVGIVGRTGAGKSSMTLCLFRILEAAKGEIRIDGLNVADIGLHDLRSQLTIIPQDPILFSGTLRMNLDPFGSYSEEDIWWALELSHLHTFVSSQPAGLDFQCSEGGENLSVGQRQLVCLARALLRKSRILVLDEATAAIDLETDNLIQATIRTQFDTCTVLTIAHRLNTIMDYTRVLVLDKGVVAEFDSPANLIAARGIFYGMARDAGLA

[6] = Drug concentration at steady state in human at 5 to 10 mg, po QD after 24 hrs; format: ADME, organism-based; settings: in vivo, read-out: Css
[7] = AUC in human at 20 to 80 mg, po QD after 24 hrs; format: ADME, organism-based; settings: in vivo
[8] = Ratio of drug concentration at steady state in human at 20 to 80 mg, po QD after 24 hrs to IC50 for human MRP3 overexpressed in Sf9 insect cells; format: ADME, organism-based; settings: in vivo
[9] = Drug concentration at steady state in human at 20 to 80 mg, po QD after 24 hrs; format: ADME, organism-based; settings: in vivo, read-out: Css
[10] = Ratio of drug concentration at steady state in human at 20 to 80 mg, po QD after 24 hrs to IC50 for human BSEP overexpressed in Sf9 insect cells; format: ADME, organism-based; settings: in vivo

Row | Structure (SMILES) | IC50 [1] [µM] | AUC at 24 h [2] [µM·h] | Ratio [3] | IC50 (Bile salt export pump) [µM] | IC50 [4] [µM] | IC50 [5] [µM] | concentration at 24 h [6] [nM] | AUC at 24 h [7] [µM·h] | Ratio [8] | concentration at 24 h [9] [nM] | Ratio [10]
1 | CC(C)(C)C(=O)OCOP(=O)(COCCn1cnc2c(N)ncnc21)OCOC(=O)C(C)(C)C [ADEFOVIR DIPIVOXIL] | > 133 | 0.765 | 0.00069 | 46 | > 133 | > 133 | 32 |  |  |  | 
2 | CC(C)n1c(/C=C/C(O)CC(O)CC(=O)O)c(-c2ccc(F)cc2)c2ccccc21 (configuration not stated) [FLUVASTATIN] | > 133 |  |  |  |  | 57 |  | 1.49 | 0.001 | 62 | 0.002
3 | C#CCN(C)[C@H](C)Cc1ccccc1 [SELEGILINE HYDROCHLORIDE] | > 133 |  |  | > 133 | > 133 | > 133 |  |  |  |  | 
4 | CS(=O)(=O)Nc1ccc([N+](=O)[O-])cc1Oc1ccccc1 [NIMESULIDE] | > 133 |  |  | > 133 | > 133 | > 133 |  |  |  |  | 
5 | O=C(c1ccccc1)c1ccc2n1CCC2C(=O)O (configuration not stated) [KETOROLAC TROMETHAMINE] | 2.7 |  |  | > 133 | > 133 | > 133 |  |  |  |  | 
6 | Cc1cc2c(s1)Nc1ccccc1N=C2N1CCN(C)CC1 [OLANZAPINE] | > 133 |  |  | > 133 | > 133 | > 133 |  |  |  |  | 
7 | COc1c(N2C[C@@H]3CCCN[C@@H]3C2)c(F)cc2c(=O)c(C(=O)O)cn(C3CC3)c12 [MOXIFLOXACIN HYDROCHLORIDE] | > 133 |  |  | > 133 | > 133 | > 133 |  |  |  |  | 
8 | NCCCC[C@H](NC(=O)[C@@H]1CCCN1C(=O)[C@@H]1CSSC[C@H](NC(=O)CNC(=O)CNC(=O)CN)C(=O)N[C@@H](Cc2ccc(O)cc2)C(=O)N[C@@H](Cc2ccccc2)C(=O)N[C@@H](CCC(N)=O)C(=O)N[C@@H](CC(N)=O)C(=O)N1)C(=O)NCC(N)=O (H-GGGCYFQNCPKG-NH2; disulfide 4-9) | > 133 |  |  | > 133 | > 133 | > 133 |  |  |  |  | 
9 | C=CCN1CC[C@]23c4c5ccc(O)c4O[C@H]2C(=O)CC[C@@]3(O)[C@H]1C5 [NALOXONE] | > 133 |  |  | > 133 | > 133 | > 133 |  |  |  |  | 
10 | CN1C(C(=O)Nc2ccccn2)=C(O)c2ccccc2S1(=O)=O [PIROXICAM] | > 133 |  |  | > 133 | > 133 | > 133 |  |  |  |  | 
11 | COc1cc(NS(C)(=O)=O)ccc1Nc1c2ccccc2nc2ccccc12 [AMSACRINE] | 7.43 |  |  | > 133 | > 133 | > 133 |  |  |  |  | 
12 | Cc1ccc(C(=O)Nc2ccc(S(=O)(=O)O)c3cc(S(=O)(=O)O)cc(S(=O)(=O)O)c23)cc1NC(=O)c1cccc(NC(=O)Nc2cccc(C(=O)Nc3cc(C(=O)Nc4ccc(S(=O)(=O)O)c5cc(S(=O)(=O)O)cc(S(=O)(=O)O)c45)ccc3C)c2)c1 [SURAMIN] | > 133 |  |  | > 133 | 36.8 | > 133 |  |  |  |  | 
13 | C[C@@H]1CN(c2c(F)c(N)c3c(=O)c(C(=O)O)cn(C4CC4)c3c2F)C[C@H](C)N1 [SPARFLOXACIN] | > 133 |  |  | > 133 | > 133 | > 133 |  |  |  |  | 
14 | C=CC1=C(C(=O)O)N2C(=O)[C@@H](NC(=O)/C(=N\O)c3csc(N)n3)[C@H]2SC1 | 11.6 |  |  | > 133 | > 133 | > 133 |  |  |  |  | 
15 | CC(C)C[C@H](NC(=O)[C@H](Cc1ccccc1)NC(=O)c1cnccn1)B(O)O [BORTEZOMIB] | > 133 |  |  | > 133 | > 133 | > 133 |  |  |  |  | 
16 | C=CC[N+]1([C@H]2C[C@H]3[C@@H]4CC[C@H]5C[C@H](O)[C@@H](N6CCOCC6)C[C@]5(C)[C@H]4CC[C@]3(C)[C@H]2OC(C)=O)CCCC1 [ROCURONIUM BROMIDE] | > 133 |  |  | > 133 | > 133 | > 133 |  |  |  |  | 
17 | NC(N)=Nc1nc(CSCCC(N)=NS(N)(=O)=O)cs1 [FAMOTIDINE] | > 133 |  |  | > 133 | > 133 | > 133 |  |  |  |  | 
18 | NS(=O)(=O)c1cc(C2(O)NC(=O)c3ccccc32)ccc1Cl (configuration not stated) [CHLORTHALIDONE] | > 133 |  |  | > 133 | > 133 | > 133 |  |  |  |  | 
19 | O=C(Cn1ccnc1[N+](=O)[O-])NCc1ccccc1 [BENZNIDAZOLE] | > 133 |  |  | > 133 | > 133 | > 133 |  |  |  |  | 
20 | CC[C@H](C)[C@@H]1NC(=O)[C@H](Cc2ccc(O)cc2)NC(=O)[C@@H](N)CSSC[C@@H](C(=O)N2CCC[C@H]2C(=O)N[C@@H](CC(C)C)C(=O)NCC(N)=O)NC(=O)[C@H](CC(N)=O)NC(=O)[C@H](CCC(N)=O)NC1=O | > 133 |  |  | > 133 | > 133 | > 133 |  |  |  |  | 
21 | CCNC(=O)[C@@H]1CCCN1C(=O)[C@H](CCCNC(=N)N)NC(=O)[C@H](CC(C)C)NC(=O)[C@@H](CC(C)C)NC(=O)[C@H](Cc1ccc(O)cc1)NC(=O)[C@H](CO)NC(=O)[C@H](Cc1c[nH]c2ccccc12)NC(=O)[C@H](Cc1c[nH]cn1)NC(=O)[C@@H]1CCC(=O)N1 [LEUPROLIDE ACETATE] | > 133 |  |  | > 133 | 80.2 | > 133 |  |  |  |  | 
22 | Cn1c(=O)c2[nH]cnc2n(C)c1=O [AMINOPHYLLINE] | 131 |  |  | > 133 | > 133 | > 133 |  |  |  |  | 
23 | NC[C@H]1O[C@H](O[C@H]2[C@H](O)[C@@H](O[C@H]3O[C@H](CO)[C@@H](O)[C@H](N)[C@H]3O)[C@H](N)C[C@@H]2N)[C@H](O)[C@@H](O)[C@@H]1O [KANAMYCIN] | > 133 |  |  | > 133 | > 133 | > 133 |  |  |  |  | 
24 | CCCc1cc(=O)[nH]c(=S)[nH]1 [PROPYLTHIOURACIL] | > 133 |  |  | > 133 | > 133 | > 133 |  |  |  |  | 
25 | C=CCN1C[C@H](C(=O)N(CCCN(C)C)C(=O)NCC)C[C@@H]2c3cccc4[nH]cc(c34)C[C@H]21 [CABERGOLINE] | > 133 |  |  | > 133 | > 133 | > 133 |  |  |  |  | 
26 | CN1CCN(c2c(F)cc3c(=O)c(C(=O)O)cn(CCF)c3c2F)CC1 [FLEROXACIN] | > 133 |  |  | > 133 | > 133 | > 133 |  |  |  |  | 
27 | N[C@@H](CC(=O)N1CCn2c(nnc2C(F)(F)F)C1)Cc1cc(F)c(F)cc1F [SITAGLIPTIN] | > 133 |  |  | > 133 | > 133 | > 133 |  |  |  |  | 
28 | CC1(C)O[C@@H]2C[C@H]3[C@@H]4CCC5=CC(=O)C=C[C@]5(C)[C@@]4(F)[C@@H](O)C[C@]3(C)[C@]2(C(=O)CO)O1 [TRIAMCINOLONE ACETONIDE] | > 133 |  |  | > 133 | > 133 | > 133 |  |  |  |  | 
